Assay results reported in US9422247B2, “Fe(III) complex compounds for the treatment and prophylaxis of iron deficiency symptoms and iron deficiency anemias” (Vifor (International) AG, priority 2011, dated 2016).

System: Male NMRI (SPF) mice
Test: iron utilization in mouse model (low-iron diet)
Assay type: in vivo
Settings: iron-deficient male NMRI mice; stomach tube, 2 mg iron/kg body weight/day, days 1-5 and 8-12; utilization on day 15 calculated from hemoglobin and body weight increase
Description: The excellent Fe utilizations that can be accomplished through the Fe complexes according to the invention were measured by means of the following mouse model. Male NMRI (SPF) mice (approximately 3 weeks old) were fed a low-iron diet (approx. 5 ppm iron) for approximately 3 weeks. The iron complexes were then administered to them by means of a stomach tube (2 mg iron/kg body weight/day) for 2 times 5 days, with an interruption of 2 days (days 1-5 and 8-12). Utilization on day 15 was calculated from the hemoglobin increase and the body weight increase in accordance with the formula […] Control group, utilized from food, (mg Fe)

Row | Substance | Utilization n 15 d (abs. %)
1 | Tris-(4-methylpyrimidine-2-ol-oxide)-iron(III) complex [Example 2] | 80 abs. %
2 | Tris-(5-chloro-4,6-dimethylpyrimidine-2-ol-1-oxide)-iron(III) complex [Example 7] | 64 abs. %
3 | Tris-(4-methyl-5,6,7,8-tetrahydrochinazoline-2-ol-3-oxide)-iron(III) complex [Example 11] | 74 abs. %
4 | Tris-(5,6-dimethylpyrimidine-2-ol 1-oxide)-iron(III) complex [Example 16] | 57 abs. %
5 | Tris-(pyrimidine-2-ol-1-oxide)-iron(III) complex [Example 1] | 89 abs. %
6 | Tris-(4,6-dimethylpyrimidine-2-ol-1-oxide)-iron(III) complex [Example 3] | 74 abs. %
7 | Tris-(4,5,6-trimethylpyrimidine-2-ol-1-oxide)-iron(III) complex [Example 6] | 70 abs. %
8 | Tris-(4-methyl-6,7-dihydro-5H-cyclopenta[d]pyrimidin-2-ol-1-oxide)-iron(III) complex [Example 10] | 70 abs. %
9 | Tris-(4-propane-2-yl)pyrimidine-2-ol-1-oxide)-iron(III) complex [Example 12] | 55 abs. %
10 | Tris-(4,6-diethylpyrimidine-2-ol-1-oxide)-iron(III) complex [Example 4] | 76 abs. %
11 | Tris-(6-ethyl-4-methylpyrimidin-2-ol-1-oxide)-iron(III) complex [Example 9] | 69 abs. %
12 | Tris-(4-ethylpyrimidine-2-ol-1-oxide)-iron(III) complex [Example 8] | 82 abs. %
